Measurements from patent US5180742A, “Quinone derivatives, their production and use” (Takeda Chemical Industries, Ltd., priority 1984, dated 1993).

Tests used:
[1] = tested on: Fe^3+ -NTA-induced injury of rat kidney; assay: Inhibitory effect on Fe3+-NTA-induced injury of rat kidney; assay type: in vivo, Wistar rats; conditions: 20 mg/kg oral once a day; for body weight gain: control 9.8 ± 5.4, normal 68.3 ± 2.3; for Urinary volume: control 20, normal 6.8; for Urinary protein: control 25.1, normal 5.1
Protocol: Ferric Nitrilotriacetate (Fe^3+ -NTA)-Induced Injury of Rat Kidney
Male Wistar rats of 4 weeks old weighing about 80 g were used. Injury of kidney was induced by the method of Awai et al. [Amer. J. Pathol., 95, 663-674 (1979)]. The mixture of ferric nitrate and NTA as a ratio of 1:4 was intraperitoneally given: iron of 5 mg/kg for 3 days followed 10 mg/kg for 9 days. Twelve days later, the animals were killed. Body weight gain, urinary volume, urinary protein and wet and dry weights of kidney were measured. Drugs were suspended in a 5% gum arabic solution and given orally once a day in a dose of 20 mg/kg.

[2] = tested on: vascular permeability during early response of rat reversed passive Arthus pleurisy; assay: Effects on vascular permeability in rat reversed passive Arthus pleurisy; assay type: in vivo
Protocol: Effects on Increased Vascular Permeability and Slow Reacting Substance of Anaphylaxis (SRS-A) Generation in Rat Reversed Passive Arthus Pleurisy
The rat reversed passive Arthus pleurisy was induced by the method of Yamamoto et al. Agents Actions, 5, 374-377 (1975)]. Rats were given 1 ml of saline containing 5 mg of egg albumin intravenously followed 0.2 ml of rabbit anti-agg albumin antiserum injected into the pleural cavity. Just after that, 0.5 ml of saline contained 1% Evans blue was administered intravenously to the rats. 30 Minutes later, the animals were killed by bleeding, and the pleural cavity was rinsed with 2 ml of saline. The concentrations of the dye in the pleural exudate and the peripheral blood were measured to calculate the volume of serum infiltrated into the pleural cavity. The vascular permeability (dye concentration in pleural cavity/dye concentration in peripheral blood) was expressed as μl serum/30 min. On the other hand, the amount of SRS-A generated in the pleural cavity was determined by the following procedures. 30 Minutes after induction of the pleurisy, the aminals were killed by bleeding and the pleural cavity was rinsed with 2 ml of saline. 9 Milliliter of cold absolute ethanol were immediately added to the rinsed solution. The mixture was allowed to stand at 4° C. for 30 min. After the mixture was centrifuged at 3000 r.p.m. for 10 min, the supernatant was concentrated by evaporation. The resulting residue was dissolved in 0.5 ml of saline. The amount of SRS-A generated was bioassayed using guinea pig ileum.

[3] = tested on: Immunoglobulin-G1 mediated bronchoconstriction reaction; assay: Action on immunoglobulin-G1 mediated bronchoconstriction reaction in guinea pigs; assay type: in vivo, Hartley guinea pigs; conditions: Cavia porcellus; 20 mg/kg oral, 1 hour before antigen
Protocol: Action on the Immunoglobulin-G1 Mediated Bronchoconstriction Reaction in Guinea Pigs
In accordance with the method of Orange and Moore (Orange, R. P. and Moore E. G. , J. Immunol., 116, 392-397, 1976), female and male Hartley guinea pigs weighing about 350 g were sensitized by intraperitoneal application of an emulsion (1 ml) composed of egg albumin (1 mg) and Freund's complete adjuvant (produced by Wako Pure-Chemical Industries, Ltd. of Japan). 3 Weeks after the sensitization, a serum antibody level in the sensitized guinea pigs was measured by means of the 3-hours passive cutaneous anaphylaxis (PCA) reaction in guinea pigs. […] The broncoconstriction reaction resulting from the antigen-antibody reaction was measured in accordance with the Konzett-Rossler method (Konzett, H. and Rossler, R., Naunyn-Schmiedeberg'ss Arch. exp. Path. pharmak., 195, 71-74, 1940). The guinea pigs were fixed on the dorsal position under anesthesia with a urethane (1.5 g/kg given intraperitonealy). An incision was made through the trachea, which was connected to an artificial respirator (manufactured by Harvard Co.) through an endotracheal tube, with a side tube of the endotracheal tube being attached to a brochoconstricting transducer (type 7020, manufactured by Ugobasile Co.). While an air volume per ventilation was adjusted to 5 to 7 ml and an air ventilation rate was controlled at 70 times/min., with a load pressure to the lung set at 10 cm H2 O, the overflown air volume was recorded on Rectigraphy-8S (manufactured by Sanei Sokki Inc. of Japan) through a transducer. After 1 mg/kg of gallamine triethiodide was given intravenously to the animals, 1 mg/kg of antigen, egg albumin dissolved in physiological saline, was applied intravenously to induce a brochoconstriction reaction. The bronchconstriction reaction was recorded for the period of time of 15 minutes. A drug was suspended in 5% gum arabic solution, and given orally 1 hour before the application of the antigen. Percent inhibition of the immunoglobuin G1 mediated bronchoconstriction reaction in guinea pigs are shown below in Table 3.

| Structure (SMILES) | Urinary protein (% inhibition) [1] [%] | Urinary volume (% Inhibition) [1] [%] | Water content in kidney (% Inhibition) [1] [%] | body weight gain [1] [g] | Urinary volume [1] [mL/day] | Urinary protein [1] [mg/day] | % Inhibition of vascular permeability ([2]; 0.1 mg/rat) [%] | % Inhibition of vascular permeability ([2]; 1 mg/rat) [%] | inhibition in vivo at 20 mg/kg [3] [%] |
| --- | --- | --- | --- | --- | --- | --- | --- | --- | --- |
| CC1=C(C)C(=O)C(C(CCCCCC(=O)O)c2ccccc2)=C(C)C1=O (stereo not drawn) [Compound No. 50, 7-(3,5,6-trimethyl-1,4-benzoquinon-2-yl)-7-phenylheptanoic acid] | 88 | 88 | 81 | 39.3 ± 7.4 | 8.4 | 7.5 | 21 | 47 | 76 |
| CC1=C(C)C(=O)C(C(CCCCCC(=O)O)c2ccc(C)cc2)=C(C)C1=O (stereo not drawn) [Compound No. 93] | 10 | 47 | 7 | 26.2 ± 4.9 | 13.6 | 23.1 | 14 | 43 | 83 |
